ChEMBL document CHEMBL1909046, “DrugMatrix in vitro pharmacology data”

Legend:
[1] = molecular target: T1, Alpha-1B adrenergic receptor (Rattus norvegicus, UniProt P15823); test: DRUGMATRIX: Alpha-1B adrenergic receptor radioligand binding (ligand: prazosin); format: cell membranes, Wistar, Liver, Membrane; conditions: Not Active = under 50% inhibition at 10 µM
T1 sequence (P15823 whole entry): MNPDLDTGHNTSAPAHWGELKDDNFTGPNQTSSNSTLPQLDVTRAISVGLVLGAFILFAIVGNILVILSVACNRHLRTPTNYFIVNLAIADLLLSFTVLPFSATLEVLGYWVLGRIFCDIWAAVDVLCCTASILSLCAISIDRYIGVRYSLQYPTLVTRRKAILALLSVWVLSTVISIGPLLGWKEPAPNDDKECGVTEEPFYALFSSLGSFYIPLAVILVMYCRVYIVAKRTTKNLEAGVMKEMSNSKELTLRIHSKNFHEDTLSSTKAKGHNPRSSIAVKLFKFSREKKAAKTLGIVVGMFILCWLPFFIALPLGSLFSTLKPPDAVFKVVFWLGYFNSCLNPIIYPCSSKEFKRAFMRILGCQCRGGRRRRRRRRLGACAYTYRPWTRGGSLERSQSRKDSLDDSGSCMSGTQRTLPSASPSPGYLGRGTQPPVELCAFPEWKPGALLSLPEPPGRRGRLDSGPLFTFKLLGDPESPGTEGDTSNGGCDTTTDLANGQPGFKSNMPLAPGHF

[2] = molecular target: T2, Alpha-1D adrenergic receptor (Homo sapiens, UniProt P25100); format: cell membranes, HEK293, Membrane; conditions: hek293; further: in other assays of this panel Not Active means under 50% inhibition at 10 µM
T2 sequence (P25100 whole entry): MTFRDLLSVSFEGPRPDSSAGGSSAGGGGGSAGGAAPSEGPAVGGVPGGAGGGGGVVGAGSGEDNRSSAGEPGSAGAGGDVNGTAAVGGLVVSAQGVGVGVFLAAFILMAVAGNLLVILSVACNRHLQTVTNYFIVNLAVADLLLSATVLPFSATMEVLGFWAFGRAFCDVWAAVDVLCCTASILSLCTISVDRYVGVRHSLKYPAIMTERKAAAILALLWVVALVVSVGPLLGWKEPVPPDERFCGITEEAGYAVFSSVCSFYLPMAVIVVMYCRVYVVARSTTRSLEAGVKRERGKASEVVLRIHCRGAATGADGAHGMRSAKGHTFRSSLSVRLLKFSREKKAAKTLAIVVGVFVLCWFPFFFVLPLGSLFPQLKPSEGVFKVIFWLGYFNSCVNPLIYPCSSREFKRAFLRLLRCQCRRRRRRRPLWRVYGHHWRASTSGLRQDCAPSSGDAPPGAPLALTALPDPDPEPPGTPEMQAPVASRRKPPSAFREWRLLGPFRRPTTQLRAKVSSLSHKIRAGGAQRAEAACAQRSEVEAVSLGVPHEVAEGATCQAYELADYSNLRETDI

[3] = molecular target: T3, Alpha-2C adrenergic receptor (Homo sapiens, UniProt P18825); test: DRUGMATRIX: Adrenergic Alpha-2C radioligand binding (ligand: [3H] MK-912); format: cell membranes, Sf9, Membrane; conditions: sf9
T3 sequence (P18825 whole entry): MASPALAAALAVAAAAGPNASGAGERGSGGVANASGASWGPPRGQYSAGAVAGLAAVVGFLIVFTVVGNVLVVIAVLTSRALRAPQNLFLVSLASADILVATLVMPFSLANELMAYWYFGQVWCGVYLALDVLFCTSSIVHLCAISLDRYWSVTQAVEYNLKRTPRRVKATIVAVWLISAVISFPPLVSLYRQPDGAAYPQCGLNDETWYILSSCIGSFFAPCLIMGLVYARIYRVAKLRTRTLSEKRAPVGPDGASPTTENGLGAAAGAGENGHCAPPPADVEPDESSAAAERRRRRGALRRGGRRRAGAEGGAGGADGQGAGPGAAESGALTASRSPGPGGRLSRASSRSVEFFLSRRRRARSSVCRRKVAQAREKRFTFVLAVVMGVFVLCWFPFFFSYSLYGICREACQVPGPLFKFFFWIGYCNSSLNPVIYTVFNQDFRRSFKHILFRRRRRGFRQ

[4] = DRUGMATRIX: Atrial Natriuretic Factor (ANF) radioligand binding (ligand: [125I] ANF (rat)); format: cell membranes, Cavia porcellus, Dunkin-Hartley, Adrenal gland, Membrane; conditions: Not Active = under 50% inhibition at 10 µM
B2 bradykinin receptor = molecular target: T4, B2 bradykinin receptor (Homo sapiens, UniProt P30411); format: cell membranes, Membrane; conditions: chem-1; further: in other assays of this panel Not Active means under 50% inhibition at 10 µM
T4 sequence (P30411 whole entry): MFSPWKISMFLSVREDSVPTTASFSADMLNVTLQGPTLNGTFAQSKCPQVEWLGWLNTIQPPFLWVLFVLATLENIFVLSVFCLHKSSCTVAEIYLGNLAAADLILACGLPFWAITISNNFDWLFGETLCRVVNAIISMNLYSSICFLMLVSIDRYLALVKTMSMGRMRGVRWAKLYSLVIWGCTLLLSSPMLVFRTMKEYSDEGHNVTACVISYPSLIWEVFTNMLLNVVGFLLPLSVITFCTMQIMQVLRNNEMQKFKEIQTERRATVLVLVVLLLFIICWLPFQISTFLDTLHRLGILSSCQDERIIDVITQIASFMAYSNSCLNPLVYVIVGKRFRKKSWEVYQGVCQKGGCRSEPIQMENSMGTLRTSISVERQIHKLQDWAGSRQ

Substance-P receptor = Substance-P receptor (Homo sapiens, UniProt P25103); format: cell membranes, Membrane; conditions: cho; further: in other assays of this panel Not Active means under 50% inhibition at 10 µM
Chain of Substance-P receptor (P25103 whole entry): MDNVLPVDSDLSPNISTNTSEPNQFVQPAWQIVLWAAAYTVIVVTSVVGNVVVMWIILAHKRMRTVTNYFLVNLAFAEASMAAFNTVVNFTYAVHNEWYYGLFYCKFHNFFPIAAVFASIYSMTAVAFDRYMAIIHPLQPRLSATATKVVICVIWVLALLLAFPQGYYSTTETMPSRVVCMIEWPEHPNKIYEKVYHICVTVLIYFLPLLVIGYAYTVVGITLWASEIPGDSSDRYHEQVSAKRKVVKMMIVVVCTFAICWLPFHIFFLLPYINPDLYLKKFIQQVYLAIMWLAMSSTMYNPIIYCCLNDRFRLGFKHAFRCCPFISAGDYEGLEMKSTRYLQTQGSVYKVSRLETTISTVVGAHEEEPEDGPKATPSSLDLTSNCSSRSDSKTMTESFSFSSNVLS

Neutrophil elastase = molecular target: T5, Neutrophil elastase (Homo sapiens, UniProt P08246); format: tissue-based;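 further: inhibition of neutrophil elastase enzyme activity, measured with a p-nitroanilide-linked peptide substrate; in other assays of this panel Not Active means under 50% inhibition at 10 µM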
T5 sequence (P08246 whole entry): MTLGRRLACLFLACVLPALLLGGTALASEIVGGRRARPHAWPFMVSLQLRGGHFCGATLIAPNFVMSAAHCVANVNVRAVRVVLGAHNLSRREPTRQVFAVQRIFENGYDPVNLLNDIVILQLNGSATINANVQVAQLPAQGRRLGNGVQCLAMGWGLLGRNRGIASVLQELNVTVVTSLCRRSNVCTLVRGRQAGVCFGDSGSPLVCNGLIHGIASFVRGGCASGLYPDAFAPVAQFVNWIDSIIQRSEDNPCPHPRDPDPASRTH

Cc1cnc(C(=O)NCCc2ccc(S(=O)(=O)NC(=O)NC3CCCCC3)cc2)cn1 [GLIPIZIDE]
Not Active: IC50 [1] | IC50 [2] | IC50 [3] | IC50 [4] | Ki [4] | IC50 (B2 bradykinin receptor) | IC50 (Substance-P receptor) | IC50 (Neutrophil elastase)

Cc1c(F)c(N2CCNC(C)C2)cc2c1c(=O)c(C(=O)O)cn2C1CC1 (stereo unspecified) [GREPAFLOXACIN]
Not Active: IC50 [1] | IC50 [2] | IC50 [3] | IC50 [4] | Ki [4] | IC50 (B2 bradykinin receptor) | IC50 (Substance-P receptor) | IC50 (Neutrophil elastase)

COc1ccccc1OCC(O)CO (stereo unspecified) [GUAIFENESIN]
Not Active: IC50 [1] | IC50 [2] | IC50 [3] | IC50 [4] | Ki [4] | IC50 (B2 bradykinin receptor) | IC50 (Substance-P receptor) | IC50 (Neutrophil elastase)

C[C@]12CCC(=O)C=C1CC[C@@H]1[C@@H]2[C@@H](O)C[C@@]2(C)[C@H]1CC[C@]2(O)C(=O)CO [HYDROCORTISONE]
Not Active: IC50 [1] | IC50 [2] | IC50 [3] | IC50 [4] | Ki [4] | IC50 (B2 bradykinin receptor) | IC50 (Substance-P receptor) | IC50 (Neutrophil elastase)

C/C=C\c1ccc(O)c(OC)c1 [ISOEUGENOL]
Not Active: IC50 [1] | IC50 [2] | IC50 [3] | IC50 [4] | Ki [4] | IC50 (B2 bradykinin receptor) | IC50 (Substance-P receptor) | IC50 (Neutrophil elastase)

NC[C@H]1O[C@H](O[C@H]2[C@H](O)[C@@H](O[C@H]3O[C@H](CO)[C@@H](O)[C@H](N)[C@H]3O)[C@H](N)C[C@@H]2N)[C@H](O)[C@@H](O)[C@@H]1O [KANAMYCIN]
Not Active: IC50 [1] | IC50 [2] | IC50 [3] | IC50 [4] | Ki [4] | IC50 (B2 bradykinin receptor) | IC50 (Substance-P receptor) | IC50 (Neutrophil elastase)

CC[C@H](C)C(=O)O[C@H]1C[C@@H](C)C=C2C=C[C@H](C)[C@H](CC[C@@H]3C[C@@H](O)CC(=O)O3)[C@H]21 [LOVASTATIN]
Not Active: IC50 [1] | IC50 [2] | IC50 [3] | IC50 [4] | Ki [4] | IC50 (B2 bradykinin receptor) | IC50 (Substance-P receptor) | IC50 (Neutrophil elastase)

CC(C(=O)O)c1ccc(CC2CCCC2=O)cc1 (stereo unspecified) [LOXOPROFEN]
Not Active: IC50 [1] | IC50 [2] | IC50 [3] | IC50 [4] | Ki [4] | IC50 (B2 bradykinin receptor) | IC50 (Substance-P receptor) | IC50 (Neutrophil elastase)

Cc1cccc(Nc2ccccc2C(=O)O)c1C [MEFENAMIC ACID]
Not Active: IC50 [1] | IC50 [2] | IC50 [3] | IC50 [4] | Ki [4] | IC50 (B2 bradykinin receptor) | IC50 (Substance-P receptor) | IC50 (Neutrophil elastase)

CC(=O)O[C@]1(C(C)=O)CC[C@H]2[C@@H]3C=C(C)C4=CC(=O)CC[C@]4(C)[C@H]3CC[C@@]21C [MEGESTROL ACETATE]
Not Active: IC50 [1] | IC50 [2] | IC50 [3] | IC50 [4] | Ki [4] | IC50 (B2 bradykinin receptor) | IC50 (Substance-P receptor) | IC50 (Neutrophil elastase)

COc1ccccc1OCC(O)COC(N)=O (stereo unspecified) [METHOCARBAMOL]
Not Active: IC50 [1] | IC50 [2] | IC50 [3] | IC50 [4] | Ki [4] | IC50 (B2 bradykinin receptor) | IC50 (Substance-P receptor) | IC50 (Neutrophil elastase)

CN(Cc1cnc2nc(N)nc(N)c2n1)c1ccc(C(=O)N[C@@H](CCC(=O)O)C(=O)O)cc1 [METHOTREXATE]
Not Active: IC50 [1] | IC50 [2] | IC50 [3] | IC50 [4] | Ki [4] | IC50 (B2 bradykinin receptor) | IC50 (Substance-P receptor) | IC50 (Neutrophil elastase)

COC(=O)c1ccccc1O [METHYL SALICYLATE]
Not Active: IC50 [1] | IC50 [2] | IC50 [3] | IC50 [4] | Ki [4] | IC50 (B2 bradykinin receptor) | IC50 (Substance-P receptor) | IC50 (Neutrophil elastase)

COc1ccc2cc(CCC(C)=O)ccc2c1 [NABUMETONE]
Not Active: IC50 [1] | IC50 [2] | IC50 [3] | IC50 [4] | Ki [4] | IC50 (B2 bradykinin receptor) | IC50 (Substance-P receptor) | IC50 (Neutrophil elastase)

O=C(O)c1cccnc1 [NIACIN]
Not Active: IC50 [1] | IC50 [2] | IC50 [3] | IC50 [4] | Ki [4] | IC50 (B2 bradykinin receptor) | IC50 (Substance-P receptor) | IC50 (Neutrophil elastase)

CNC(=C[N+](=O)[O-])NCCSCc1csc(CN(C)C)n1 [NIZATIDINE]
Not Active: IC50 [1] | IC50 [2] | IC50 [3] | IC50 [4] | Ki [4] | IC50 (B2 bradykinin receptor) | IC50 (Substance-P receptor) | IC50 (Neutrophil elastase)

C[C@]12C/C(=C/O)C(=O)C[C@@H]1CC[C@@H]1[C@@H]2CC[C@@]2(C)[C@H]1CC[C@]2(C)O [OXYMETHOLONE]
Not Active: IC50 [1] | IC50 [2] | IC50 [3] | IC50 [4] | Ki [4] | IC50 (B2 bradykinin receptor) | IC50 (Substance-P receptor) | IC50 (Neutrophil elastase)

CC(C)(CO)C(O)C(=O)NCCCO (stereo unspecified) [PANTHENOL]
Not Active: IC50 [1] | IC50 [2] | IC50 [3] | IC50 [4] | Ki [4] | IC50 (B2 bradykinin receptor) | IC50 (Substance-P receptor) | IC50 (Neutrophil elastase)

COc1ccc(Cc2nccc3cc(OC)c(OC)cc23)cc1OC [PAPAVERINE]
Not Active: IC50 [1] | IC50 [2] | IC50 [3] | IC50 [4] | Ki [4] | IC50 (B2 bradykinin receptor) | IC50 (Substance-P receptor) | IC50 (Neutrophil elastase)

OCCN1CCN(CCCN2c3ccccc3Sc3ccc(Cl)cc32)CC1 [PERPHENAZINE]
Not Active: IC50 [1] | IC50 [2] | IC50 [3] | IC50 [4] | Ki [4] | IC50 (B2 bradykinin receptor) | IC50 (Substance-P receptor) | IC50 (Neutrophil elastase)

CCCCC1C(=O)N(c2ccccc2)N(c2ccccc2)C1=O [PHENYLBUTAZONE]
Not Active: IC50 [1] | IC50 [2] | IC50 [3] | IC50 [4] | Ki [4] | IC50 (B2 bradykinin receptor) | IC50 (Substance-P receptor) | IC50 (Neutrophil elastase)

Cc1cccc(Nc2cc(Cl)nc(SCC(=O)O)n2)c1C [PIRINIXIC ACID]
Not Active: IC50 [1] | IC50 [2] | IC50 [3] | IC50 [4] | Ki [4] | IC50 (B2 bradykinin receptor) | IC50 (Substance-P receptor) | IC50 (Neutrophil elastase)
